Measurements: paper PMC8587756, “Spirostanol Saponins from Flowers of Allium Porrum and Related Compounds Indicating Cytotoxic Activity and Affecting Nitric Oxide Production Inhibitory Effect in Peritoneal Macrophages” (Molecules, 2021)
Like-named read-outs stand apart in the source and are kept apart here.

Columns and labels:
[1] = tested on: murine leukemia cells P388; parameters: method as in PMID 9836426; details: cancer murine leukemia cells P388; cited from earlier work
[2] = tested on: NO production in mouse peritoneal cells; experiment: Nitric oxide production induced by LPS and IFN-γ in mouse peritoneal cells (Griess reagent); assay type: cell-based; details: for effect on production of NO (in words): LPS + IFN-γ, 24 h, Figure 3B; for inhibitory effects (in words): tested up to 25 µM; for IC50: LPS 0.1 ng/mL + IFN-γ 5 ng/mL, nitrites at 24 h, read-out: Nitric Oxide, IC50 (95% Limits of Confidence)
Description: Biological effects of studied compounds were evaluated in vitro, using mouse (C57BL6, Charles River Deutschland, Sulzfeld, Germany) peritoneal cells. Animals, killed by cervical dislocation, were i.p. injected with 8 mL of sterile saline. Pooled peritoneal cells collected from mice (n = 4–6 in individual experiments) were washed, re-suspended in culture medium, and seeded into 96-well round-bottom microplates (Costar, Corning, NY, USA) in 100-μL volumes, 2 × 10^5 cells/well. All experimental variants were run in duplicate. Complete RPMI-1640 culture medium (Sigma-Aldrich, St. Louis, MO, USA) contained 10% heat-inactivated foetal bovine serum, 2 mM L-glutamine, 50 μg/mL gentamicin, and 5 × 10^−5 M 2-mercaptoethanol (all Sigma-Aldrich). Cultures were maintained at 37 °C, 5% CO2 in humidified incubator (Sanyo Electric Biomedical, Osaka, Japan). The Institution Animal Ethics Committee (No. 13/2006) approved the animal welfare and all experimental procedures.
High output NO production was induced by mixture of lipopolysaccharide (LPS from E. coli 0111:B4, 0.1 ng/mL; Sigma) and murine recombinant interferon-γ (IFN-γ, 5 ng/mL; R&D Systems, Minneapolis, MN, USA) in mouse peritoneal cells. Tested compounds were applied concomitantly with these priming stimuli. The concentration of nitrites in supernatants of cells was assayed at the interval of 24 h. It was detected in individual, cell-free samples (50 μL) incubated 5 min at ambient temperature with an aliquot of a Griess reagent (1% sulphanilamide/0.1% naphtylendiamine/2.5% H3PO4). The absorbance at 540 nm was recorded using a microplate spectrophotometer (Tecan, Grödig, Austria). A nitrite calibration curve was used to convert absorbance to μM nitrite.
Estimates of 50% inhibitory concentrations of compounds (IC50, and CC50), correlation analysis, and graphical presentation of data were done using the Prism program (GraphPad Software, San Diego, CA, USA).

[3] = Cell viability / cytotoxicity, LDH assay in mouse peritoneal cells; assay type: cell-based
Description: (§1) Biological effects of studied compounds were evaluated in vitro, using mouse (C57BL6, Charles River Deutschland, Sulzfeld, Germany) peritoneal cells. Animals, killed by cervical dislocation, were i.p. injected with 8 mL of sterile saline. Pooled peritoneal cells collected from mice (n = 4–6 in individual experiments) were washed, re-suspended in culture medium, and seeded into 96-well round-bottom microplates (Costar, Corning, NY, USA) in 100-μL volumes, 2 × 10^5 cells/well. All experimental variants were run in duplicate. […] Cultures were maintained at 37 °C, 5% CO2 in humidified incubator (Sanyo Electric Biomedical, Osaka, Japan).
(§2) Viability of cells was analysed using the LDH (lactate dehydrogenase) assay. It is based on the determination of lactate dehydrogenase activity released from the cytosol of damaged cells into cell supernatant. The supernatants were harvested at the interval of 22 h of culture, diluted 1:1, and mixed with an aliquot of the LDH kit (Sigma-Aldrich, St. Louis, MO, USA). After 30-min incubation in the dark at ambient temperature, the reaction was stopped with 2 N HCl. […] Triton (1%) was used to induce 100% cell death. All control and experimental variants were run in quadruplicate.

[4] = tested on: mouse peritoneal cells; experiment: as above; assay type: cell-based
Description: as §1, §2

[5] = tested on: murine monocyte/macrophage cell line J-774; parameters: method as in PMID 9358643; details: 24 h, MTT assay; cited from earlier work
[6] = tested on: RAW 246.7 macrophages and lymphocytes; parameters: method as in PMID 26329920; details: different concentrations, 72 h, MTT assay; cited from earlier work
[7] = mouse peritoneal cells, LDH assay, 24 h, Figure 3A
[8] = C57BL6, mouse peritoneal cells, LDH assay, cultured 24 h (supernatants harvested at 22 h), read-out: Cytotoxicity CC50 (95% Limits of Confidence)

Row | Molecule | effect on production of NO (in words) [2] | CC50 at 22 h ([3]; C57BL6, mouse) [µM] | cytotoxic effects in model immune cells (in words) [4] | concentration at onset of cell viability decline [4, 7] | IC50 [2] [µM] | other results
1 | C[C@@H]1CC[C@@]2(OC1)O[C@H]1CC3C4C[C@@H](O)C5C[C@@H](O[C@@H]6O[C@H](CO)[C@H](O[C@@H]7O[C@H](CO)[C@@H](O)[C@H](O[C@@H]8OC[C@@H](O)[C@H](O)[C@H]8O)[C@H]7O[C@@H]7O[C@H](CO)[C@@H](O)[C@H](O)[C@H]7O)[C@H](O)[C@H]6O)[C@H](O)C[C@]5(C)C4CC[C@]3(C)C1[C@@H]2C (stereo partly shown) [Compound 1, aginoside] | inhibited the production of NO | 11.1 | strong cytotoxic effects | approximately 4 µM |  | cytotoxicity IC50 [1]: 2.1 µg/mL
2 | C[C@@H]1CC[C@@]2(OC1)O[C@H]1CC3C4CCC5C[C@@H](O[C@@H]6O[C@H](CO)[C@H](O[C@@H]7O[C@H](CO)[C@@H](O)[C@H](O[C@@H]8OC[C@@H](O)[C@H](O)[C@H]8O)[C@H]7O[C@@H]7O[C@H](CO)[C@@H](O)[C@H](O)[C@H]7O)[C@H](O)[C@H]6O)[C@H](O)C[C@]5(C)C4CC[C@]3(C)C1[C@@H]2C (stereo partly shown) [Compound 2, 6-deoxy-aginoside] | inhibited the production of NO | 5.7 | strong cytotoxic effects | approximately 4 µM |  | 
3 | CC1CCC2(OC1)OC1CC3C4CC(O)C5CC(OC6OC(CO)C(OC7OC(CO)C(O)C(OC8OCC(O)C(O)C8O)C7OC7OC(CO)C(O)C(OC8OC(CO)C(O)C(O)C8O)C7O)C(O)C6O)C(O)CC5(C)C4CCC3(C)C1C2C (stereo not shown) [Compound 3] | inhibited the production of NO | 7.21 | strong cytotoxic effects | approximately 4 µM |  | 
4 | CC1CC[C@@]2(OC1)O[C@H]1C[C@H]3[C@@H]4C[C@@H](O)C5C[C@@H](O)[C@H](O)C[C@]5(C)[C@H]4CC[C@]3(C)[C@H]1[C@@H]2C (stereo partly drawn) [Compound 4, spirostan-2α, 3β, 6β–triol] |  | > 100 |  |  |  | inhibitory effects (in words) [2]: devoid of any inhibitory effects; cytotoxicity (in words) [5]: did not show cytotoxicity
5 | C[C@@H]1CC[C@@]2(OC1)O[C@H]1[C@@H](O)[C@H]3[C@@H]4CC[C@H]5C[C@@H](O[C@@H]6O[C@H](CO)[C@H](O[C@@H]7O[C@H](CO)[C@@H](O)[C@H](O[C@@H]8OC[C@@H](O)[C@H](O)[C@H]8O)[C@H]7O[C@@H]7O[C@H](CO)[C@H](O)[C@H](O[C@@H]8O[C@H](CO)[C@@H](O)[C@H](O)[C@H]8O)[C@H]7O)[C@H](O)[C@H]6O)[C@H](O)C[C@]5(C)[C@H]4CC[C@]3(C)[C@H]1[C@@H]2C [Compound 5, digitonin, reference compound] | inhibited the production of NO |  |  | approximately 4 µM | 5.52 | CC50 at 22 h [3, 8]: 5.83 µM; cytotoxic effects in model immune cells (in words) [4, 7]: strong cytotoxic effects
6 | C[C@@H]1CC[C@@]2(OC1)O[C@H]1C[C@H]3[C@@H]4CC=C5C[C@@H](O)CC[C@]5(C)[C@H]4CC[C@]3(C)[C@H]1[C@@H]2C [Compound 7, diosgenin] |  |  |  |  | > 100 | inhibitory effects (in words) [2]: devoid of any inhibitory effects; CC50 at 22 h [3, 8]: > 100 µM; cytotoxicity (in words) [6]: No changes in cytotoxicity
7 | C[C@@H]1CC[C@@]2(OC1)O[C@H]1C[C@H]3[C@@H]4CC=C5C[C@@H](O[C@@H]6O[C@H](CO)[C@@H](O[C@@H]7O[C@@H](C)[C@H](O)[C@@H](O)[C@H]7O)[C@H](O)[C@H]6O[C@@H]6O[C@@H](C)[C@H](O)[C@@H](O)[C@H]6O)CC[C@]5(C)[C@H]4CC[C@]3(C)[C@H]1[C@@H]2C [dioscin, reference compound] |  |  |  |  |  | cytotoxicity IC50 [1]: 0.092 µg/mL
8 | tomatonin [Compound 6, reference compound] | inhibited the production of NO |  |  | approximately 4 µM | 7.19 | cytotoxic effects in model immune cells (in words) [4, 7]: strong cytotoxic effects; CC50 ([4]; mouse peritoneal cells, LDH assay, cultured 24 h (supernatants harvested at 22 h), read-out: Cytotoxicity CC50 (95% Limits of Confidence)): 9.9 µM
